Assay results taken from patent publication US20100216755A1, “ANTI-TUMOR AGENT” (AJINOMOTO CO. INC, priority 2001, published 2010).
Structures can show the parent of a compound that is named as a salt. Marks after values point to notes of the source that are not given here.

How the values were obtained:
[1] = Maximum tolerable dose in CDF1 mice; assay type: in vivo; settings: AC-7700 s.c. 3 times every 3 days, CDF1 mice (female)
[2] = test system: Malignant fibrous histiocytoma MT-9; assay: Anti-tumor effect, MT-9/F344 system (tumor volume, I.R.); assay type: in vivo, rat (F344); settings: for I.R.(%): 3 times every 3 days
Protocol: • Rat tumor cell line (transplant rat strain); • Malignant fibrous histiocytoma MT-9 (F344, male)
MT-9 was obtained as in-vitro cultured cells, which were cultured in RPMI1640 medium containing 10% FBS. 10^7 or more of the MT-9 cells were subcutaneously transplanted into the back of rats. After tumor formation, tumor slices (about 100 mg) were inoculated subcutaneously into rats using cannula for serial passage.
The MT-9/F344 system: Tumors serially passed by the subcutaneous transplantation were extirpated. After binding tissues and necrosis portions in the tumors had been removed, tumor tissues were minced with scissors and made pasty. About 50-100 mg of the tumor tissues were subcutaneously transplanted into the backs of F344 rats (day 0).
After the tumors were multiplied to a measurable quantity (about 1-2 weeks later), the tumor size (tumor volume) and body weight were measured and divided into tumor size-and body weight-matched groups.
The tumor sizes (tumor volumes) and body weights were measured every day from the next day to about the third day following completion of administration. Incidentally, the tumor volume was calculated according to the following formula:
Tumor volume (mm^3)=[…].
T/C(%)=[(tumor volume for the medicine administered group)÷(tumor volume for the control group)]×100
The influence of Dexamethasone on the pharmaceutical effect of AC-7700 was investigated using F344 rats, subcutaneously transplanted MT-9. AC-7700 was administered at a dosage of 10 mg/kg, and 1 mg/kg of Dexamethasone was administered on the day before the AC-7700 administration. Both the medical agents were 3 times administered every 3 days.

With COc1ccc(/C=C\c2cc(OC)c(OC)c(OC)c2)cc1NC(=O)[C@@H](N)CO [AC-7700, (Z)—N-[2-methoxy-5-[2-(3,4,5-trimethoxyphenyl)vinyl]phenyl]-L-serinamide hydrochloride] the “maximum tolerable dose of AC-7700” value ([1]; with Dexamethasone 5 mg/kg/day i.v. on the day before and the day of AC-7700) was “more than 90 mg/kg/day”, the “maximum tolerable dose of AC-7700” value ([1]; without Dexamethasone) was 43.6 mg/kg/day and the tumor growth ([2]; AC-7700 10 mg/kg as single agent, F344 rats, s.c. MT-9) was “significantly inhibited tumor growth”. The tumor growth ([2]; AC-7700 10 mg/kg in combination with Dexamethasone 1 mg/kg, no significant difference from AC-7700 alone (Scheffe's F test)) was “inhibited tumor growth in the same manner”, the “I.R.(%)” value ([2]; AC-7700 10 mg/kg/day alone (DEX 0), F344 rats, s.c. MT-9) was 84** % and the “I.R.(%)” value ([2]; AC-7700 10 mg/kg/day combined with DEX 1 mg/kg/day given the day before, F344 rats, s.c. MT-9) was 72** %.
